The target of assay [1] is T1, Sialidase (Clostridium perfringens, UniProt P10481).
T1 sequence (P10481 whole entry): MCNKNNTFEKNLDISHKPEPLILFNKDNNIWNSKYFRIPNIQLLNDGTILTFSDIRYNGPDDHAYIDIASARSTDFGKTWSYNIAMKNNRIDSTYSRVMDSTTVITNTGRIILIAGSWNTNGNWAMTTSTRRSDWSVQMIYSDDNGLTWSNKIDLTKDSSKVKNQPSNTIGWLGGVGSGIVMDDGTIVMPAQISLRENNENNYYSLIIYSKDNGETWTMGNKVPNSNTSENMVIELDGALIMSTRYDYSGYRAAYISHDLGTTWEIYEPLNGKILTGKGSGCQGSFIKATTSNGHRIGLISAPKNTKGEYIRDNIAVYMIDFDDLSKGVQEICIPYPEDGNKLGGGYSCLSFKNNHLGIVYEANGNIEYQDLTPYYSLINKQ
Put plainly: (§1) Inhibition of Clostridium perfringens neuraminidase by fluorimetry.

The target of assay [2] is T2, Sialidase (Clostridium perfringens) (UniProt P10481).
T2 sequence (whole entry): T1 sequence (P10481 whole entry)
Described as §1.

For assay [3], the target named is T1, Sialidase. Briefly: Apparent binding affinity at Clostridium perfringens neuraminidase by fluorimetry. The note with it: read-out: Ki(app).
In assay [4] the target is T1, Sialidase. Briefly: Competitive inhibition of Clostridium perfringens neuraminidase by Lineweaver-Burke plot and Dixon plot.
In assay [5] the target is T2, Sialidase (Clostridium perfringens). Briefly: Inhibition of Clostridium perfringens neuraminidase at 200 uM by fluorimetry.

“And” between values parts separate entries of the source, which are not always exact repeats. Equal entries are not always repeated.

A word on the IC50: it is the concentration needed to halve the response being measured. A low value points to greater potency. By inhibition is commonly meant the relative decrease from the control value, in per cent. Lower therefore signals little suppression.

With `C=CC(C)(C)c1c(O)cc2oc3cc(O)c(O)c(CC=C(C)C)c3c(=O)c2c1O`, in assay [1], the IC50 is 80 nM. In addition, the Activity entry in assay [2] is “Dose-dependent effect”. Further, the Ki is 127 nM in assay [3] and 58 nM in assay [4].
Consider `C=CC(C)(C)c1c(O)cc(O)c2c(=O)c3cc(O)c4c(c3oc12)C=CC(C)(C)O4`, for which, in assay [5], the Activity entry was “Dose-dependent effect” and the inhibition was 30%.
`O=c1cc(-c2ccc(O)cc2)oc2cc(O)cc(O)c12` [APIGENIN]: in assay [1], the midpoint of inhibition, the IC50, lay at 17400 nM.
As for `C=CC(C)(C)c1c(O)cc(O)c2c(=O)c3c(CC=C(C)C)c(O)c(O)cc3oc12` [CUDRATRICUSXANTHONE A], in assay [1], the IC50 was determined as 245 nM. Further, the Activity entry in assay [2] was “Dose-dependent effect”. Further, the Ki stood at 214 nM in assay [3] and 136 nM in assay [4].
As for `C=CC(C)(C)c1c(OC)cc(O)c2c(=O)c3c(CC=C(C)C)c(O)c(O)cc3oc12` [CUDRAXANTHONE D], the half-maximal inhibitory concentration (IC50) in assay [1] was 278 nM and 1270 nM. The Activity entry in assay [2] was “Dose-dependent effect”. The Ki was 436 nM and 2230 nM in assay [3]; 143 nM and 950 nM in assay [4].
Take `C=CC(C)(C)c1c(O)cc2oc3c(CC=C(C)C)c(O)c(O)cc3c(=O)c2c1O` [CUDRAXANTHONE L]: inhibition in assay [1] was half-maximal at 228 nM (IC50). Moreover, the Activity entry in assay [2] was “Dose-dependent effect”. Besides, the figures for the Ki in assay [3] and in assay [4] were 568 nM and 138 nM, respectively.
The corresponding values for `CC(C)=CCc1c(O)c(O)cc2c(=O)c3c(O)c4c(cc3oc12)OC(C)C4(C)C` (centres undefined) [CUDRAXANTHONE M] are 186 nM, “Dose-dependent effect”, 510 nM and 98 nM.
In assay [1], `C=CC(C)(C)c1c2c(c(O)c3c(=O)c4ccc(O)c(O)c4oc13)C=CC(C)(C)O2` [MACLURAXANTHONE] registered an IC50 of 186 nM. Further, in assay [2], the Activity entry is “Dose-dependent effect”. In addition, the Ki was 477 nM in assay [3] and 103 nM in assay [4].
In assay [1], `O=c1c2cc(O)c(O)cc2oc2cc(O)c([C@@H]3O[C@H](CO)[C@@H](O)[C@H](O)[C@H]3O)c(O)c12` [MANGIFERIN] displayed an IC50 of 16200 nM.
The compound `O=c1c(O)c(-c2ccc(O)c(O)c2)oc2cc(O)cc(O)c12` [QUERCETIN] displayed a 50% inhibitory concentration (IC50) in assay [1] of 2700 nM.

The values above are taken from ChEMBL document CHEMBL1153970, “Characteristic of neuraminidase inhibitory xanthones from Cudrania tricuspidata” (Bioorg Med Chem, 2009).
